From ChEMBL document CHEMBL1201862, “PubChem BioAssay data set” (2004)
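48-hour exposure; five concentrations; linearly interpolated endpoints. Here, GI50 denotes the concentration required for 50% inhibition of growth.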 Calls of active or inactive are those of the source. Cut-off read from the data, not from the text of the source: active = GI50 up to about 1.1 µM and inactive = higher.

Tests used:
Assay in all cases: DTP human tumour cell line panel, 48 h
HCT-15 = tested on: HCT-15
HOP-92 = tested on: HOP-92
DU-145 = tested on: DU-145
UACC-257 = tested on: UACC-257
NCI-H460 = tested on: NCI-H460
OVCAR-4 = tested on: OVCAR-4
NCI-H23 = tested on: NCI-H23
UACC-62 = tested on: UACC-62
LOX IMVI = tested on: LOX IMVI
T47D = tested on: T47D
M14 = tested on: M14
RPMI-8226 = tested on: RPMI-8226
HOP-62 = tested on: HOP-62
U-251 = tested on: U-251
SF-268 = tested on: SF-268
MDA-N = tested on: MDA-N
OVCAR-5 = tested on: OVCAR-5
OVCAR-3 = tested on: OVCAR-3
SK-MEL-28 = tested on: SK-MEL-28
RXF 393 = tested on: RXF 393
HL-60 = tested on: HL-60
Hs-578T = tested on: Hs-578T
PC-3 = tested on: PC-3
HT-29 = tested on: HT-29
SK-MEL-2 = tested on: SK-MEL-2
OVCAR-8 = tested on: OVCAR-8
SW-620 = tested on: SW-620
MDA-MB-435 = tested on: MDA-MB-435
SN12C = tested on: SN12C
IGROV-1 = tested on: IGROV-1
SNB-75 = tested on: SNB-75
SR = tested on: SR
KM12 = tested on: KM12
HCC 2998 = tested on: HCC 2998
HCT-116 = tested on: HCT-116
MOLT-4 = tested on: MOLT-4
786-0 = tested on: 786-0
NCI-H522 = tested on: NCI-H522
NCI/ADR-RES = tested on: NCI/ADR-RES
A498 = tested on: A498
CAKI-1 = tested on: CAKI-1
TK-10 = tested on: TK-10
K562 = tested on: K562
ACHN = tested on: ACHN
BT-549 = tested on: BT-549
Malme-3M = tested on: Malme-3M
MCF7 = tested on: MCF7
SNB-19 = tested on: SNB-19
A549 = tested on: A549
SF-295 = tested on: SF-295
MDA-MB-231 = tested on: MDA-MB-231
UO-31 = tested on: UO-31
EKVX = tested on: EKVX
SK-OV-3 = tested on: SK-OV-3

Measured: GI50

CCN1C(=S)n2cccc2C1CC(=O)c1ccc(Cl)cc1 (centres undefined)
51.8 µM: HCT-15
inactive: HOP-92 > 100 µM | DU-145 > 100 µM | UACC-257 18.4 µM | NCI-H460 34.7 µM | OVCAR-4 93.3 µM | NCI-H23 13 µM | UACC-62 62.2 µM | LOX IMVI 58.9 µM | T47D 56.6 µM | M14 89.9 µM | RPMI-8226 15.7 µM | HOP-62 > 100 µM | U-251 36 µM | SF-268 63.1 µM | MDA-N 88.5 µM | OVCAR-5 87.9 µM | OVCAR-3 74 µM | SK-MEL-28 54.1 µM | RXF 393 > 100 µM | HL-60 26.7 µM | Hs-578T > 100 µM | PC-3 40.2 µM | HT-29 68.7 µM | SK-MEL-2 58.2 µM | OVCAR-8 > 100 µM | SW-620 42.9 µM | MDA-MB-435 56.1 µM | SN12C > 100 µM | IGROV-1 > 100 µM | SNB-75 54.7 µM | SR 57 µM | KM12 > 100 µM | HCC 2998 73.8 µM | HCT-116 33 µM | MOLT-4 22.8 µM | 786-0 > 100 µM | NCI-H522 15.5 µM | NCI/ADR-RES 42.4 µM | A498 43.5 µM | CAKI-1 > 100 µM | TK-10 95.9 µM | K562 53.7 µM | ACHN > 100 µM | BT-549 64.9 µM | Malme-3M 57.3 µM | MCF7 24.8 µM | SNB-19 75.3 µM | A549 15.3 µM | SF-295 63.7 µM | MDA-MB-231 59.6 µM | UO-31 42.9 µM | EKVX 32.3 µM | SK-OV-3 > 100 µM
